For one test, the system named is viral integration. Description: Inhibition of viral integration by INSTI (Example 4). The format is cell-based, HIV-1. The note with it: for IC50: Human immunodeficiency virus 1, read-out: IC50 for inhibition of viral integration.
Test [1] relates to maturation reaction (3′-processing). Description: Effect of INSTI on the maturation reaction (3′-processing) in infected cells (Example 4). Type of test: cell-based, HIV-1. As to conditions: for effect on the maturation step: 500 nM inhibitor; for maturation efficacy: 2.5 μM inhibitor. From the text: Quantification of 3′ non-mature and mature linear forms of the DNA of HIV-1 by LM-PCR. The strategy used in order to quantify the linear viral DNA is based on the ligation of a linking oligonucleotide (or “linker”) at the ends of the viral ends followed by two PCRs according to the protocol of Pierson et al. (Pierson et al. (2002) Journal of Virology 17:8518-8531). Major improvements have been made in order to implement an approach of quantitative PCR type.

A further test deals with T1, recombinant integrase (Human immunodeficiency virus type 1 group M subtype B, UniProt P12497).
T1 construct: with the aid of recombinant integrase
Put plainly: In vitro maturation reaction with recombinant integrase. The format is biochemical, HIV-1.

In the next test the test system is maturation reaction. Description: Confirmation of the effect on maturation with a radiolabeled probe derived from the PCR. Type of test: cell-based, HIV-1. As to conditions: 5 μM inhibitor. The text has this: The different effects of each of the inhibitors on the maturation reaction were confirmed with the aid of a radiolabeled probe derived from the PCR.
Test [2] has as its system 2-LTR or 1-LTR bands of HIV-1 viral DNA. Description: Accumulation of 2-LTR and 1-LTR bands with INSTI (Example 4). As to conditions: for 2 LTR bands as share of the viral forms: 500 nM to 5 μM, 48 h post-infection; for accumulation of 2-LTR or 1-LTR bands on varying the concentration: from 500 nM to 5 μM. The format is cell-based. The procedure:
Quantification of the 1-LTR bands. The quantifications were carried out by real-time PCR on a Light Cycler apparatus (Roche Diagnostics, Meylan, France) with the aid of the second derivative method provided with the Light Cycler quantification software, version 3.5 (Roche Diagnostics). The number of DNA copies of the 1-LTR bands was determined by quantifying the viral molecules with the aid of primers which hybridize to the genes gag and env, as well as to hybridization probes. The reaction mixtures contain 1× LightCycler FastStart DNA master HybProbes buffer (Roche Diagnostics reference 12239272001), 4 mM MgCl2, 300 nM of 1-LTR LA1 primers (5′-[…]-3′, SEQ ID NO: 1) and 1-LTR LA16 (5′-[…]-3′, SEQ ID NO: 2) and 200 nM of LTR FL* hybridization probes (5′-[…]^a-3′, SEQ ID NO: 3) and LTR LC*(5′-[…]^b-3′, SEQ ID NO: 4) (^aFluorescein at the 3′ end; ^bLC red 640 at the 5′ end and phosphorylated at the 3′ end) in a final volume of 20 μl. The conditions of the PCR cycles for the quantification of the 1-LTR bands are the following: denaturation step for 8 min followed by 40 cycles (95° C. for 10 s, 60° C. for 10 s, and 72° C. for 25 s). The number of copies of 1-LTR bands was determined by reference to a calibration curve prepared by amplifying quantities ranging from 100 to 10^5 copies of p1-LTR.
(§1) The bands at 2-LTR are amplified by the primers flanking the LTR-LTR junction (HIVF and HIVR1 primers) (Brussel & Sonigo (2003) Journal of Virology 77:10119-10124). The viral DNA integrated is quantified by Alu-PCR (Brussel & Sonigo (2003) Journal of Virology 77:10119-10124). The U5-gag sequences, the 2-LTR junctions as well as the specific amplification of the integrated DNA are amplified in duplicate starting from 1/50 of the extraction of cell DNA. The number of copies is normalized per μg of DNA by measuring the quantity of β-globin gene in 1/50 of the DNA extract (Table 1).

For test [3], the system named is maturation reaction in primary CD4+ T lymphocytes infected with Δenv virus of wild-type. Put plainly: Efficacy of maturation during infection of primary CD4+ T lymphocytes. The format is cell-based, HIV-1. As to conditions: 5 μM inhibitor. The text has this: In addition, the accumulation kinetics of the 1-LTR and 2-LTR bands are similar in the primary cells with respect to cells of cellular line.

Test [4] has as its system maturation (3′-processing) of the linear viral DNA of HIV-1 in CEM cells. Description: Quantification of mature and non-mature linear viral DNA by LM-PCR after infection of CEM cells. Type of test: cell-based.
The subject of test [5] is integration of HIV-1 viral DNA in infected cells. Description: Quantification of integrated viral DNA by Alu-PCR in infected cells. The format is cell-based. As to conditions: WT virus, 500 nM raltegravir, FIG. 3D.
From the text: as §1

Consider `C[C@@H]1CCO[C@H]2Cn3cc(C(=O)NCc4ccc(F)cc4F)c(=O)c(O)c3C(=O)N12` [DTG, dolutegravir], for which, in the test with viral integration, the “lowest concentration completely inhibiting viral integration” value is 500 nM and the IC50 is 2 nM. In test [1], the “effect on the maturation step” value is “not affected” and the maturation efficacy entry is given as “approximately 40%”. Further, the IC50 on recombinant integrase came out at 2000 nM. Further, the effect on maturation result with maturation reaction is on record as “significantly inhibit maturation”. In addition, in test [2], the “2 LTR bands as share of the viral forms” value is listed as about 40% and the “accumulation of 2-LTR or 1-LTR bands on varying the concentration” value is on record as “does not lead to an increase”. The “efficacy of the maturation reaction influenced or not” value in test [3] was “influenced”.

`COc1cc2c(cc1Cc1cccc(Cl)c1F)c(=O)c(C(=O)O)cn2[C@H](CO)C(C)C` [EVG, elvitegravir]: in the test on viral integration, the “lowest concentration completely inhibiting viral integration” value came to 500 nM and the IC50 came to 2 nM. For the same compound, in test [1], the “effect on the maturation step” value is given as “not affected” and the maturation efficacy entry is on record as “approximately 40%”. Moreover, the effect on maturation entry in the test on maturation reaction is “significantly inhibit maturation”. In addition, in test [2], the “2 LTR bands as share of the viral forms” value was about 40% and the “accumulation of 2-LTR or 1-LTR bands on varying the concentration” value is on record as “does not lead to an increase”. In addition, the “efficacy of the maturation reaction influenced or not” value in test [3] is “influenced”.

`COc1cc(/C=C/c2ccc3ccc(C(=O)O)c(O)c3n2)cc(O)c1O` [FZ41]: in test [4] (wild-type integrase virus, 20 μM FZ41 at the time of infection, 20 hours post-infection (75% without compound)), the “percentage of mature viral DNA” value amounted to 28%.

As for `Cc1nnc(C(=O)NC(C)(C)c2nc(C(=O)NCc3ccc(F)cc3)c(O)c(=O)n2C)o1` [RAL, raltegravir], the “quantity of linear viral DNA (mature and non-mature), compared with WT” value in test [4] (500 nM raltegravir, achieved 8 hours post-infection) is “the same”. In addition, the “quantity of mature viral DNA with or without raltegravir” value in test [4] (WT virus, 500 nM raltegravir) was “similar”. The “detection of integrated viral DNA” value in test [5] was “inhibition of the detection of integrated viral DNA”. In the test on viral integration, the “lowest concentration completely inhibiting viral integration” value was found to be 500 nM and the IC50 was 8 nM. The “effect on the maturation step” value in test [1] is reported as “not affected”. In test [1] (5 μM inhibitor), the “maturation activity / maturation efficacy” value is 80%. Besides, in test [3], the “efficacy of the maturation reaction influenced or not” value was “not”.

These data come from patent US20150232954A1, “Method for quantifying different viral forms of the DNA of the HIV virus” (UNIVERSITE PARIS DIDEROT - PARIS 7, priority 2012, published 2015).
